System: inflammatory pain
Test: Randall-Selitto test in rats (carrageenin-induced paw oedema, pressure at vocalisation, %MPE; isobolographic analysis)
Assay type: in vivo, rat
Protocol: The weight ratios of the components (a) and (b) that will lead to a supra-additive effect (synergistic effect) of the inventive pharmaceutical composition may be determined via the test of Randall and Selitto as described in Arch. Int. Pharmacodyn., 1957, 111: 409 to 419, which is a model for inflammatory pain. The respective part of the literature is hereby incorporated by reference and forms part of the present disclosure.
By means of injection of 0.1 ml of Carrageenin-suspension ventrally into a hind paw of a rat an oedema is induced, on which pain is generated 4 hours later by continuously increasing pressure with a stamp (2 mm tip diameter). The antinociceptive and antihyperalgesic activity of the tested substance is determined at different points in time after administration of the substance. The measured value to be determined and at the same time also the end point of the pain test is the pressure at which the vocalisation reaction of the rat occurs. The percentage maximum possible effect (%MPE) is calculated. The maximum pressure of the stamp is 250 g. The group size is n = 10.
The interactions studies presented herein were performed using equieffective doses of the two components, calculated from the ratio of the respective ED50 values of the components if administered alone.
The application route was intravenous (i.v.) for (1R,2R)-3-(3-Dimethylamino-1-ethyl-2-methyl-propyl)-phenol (A) and intraperitoneal (i.p.) for Paracetamol. […] According to their respective timepoint of peak effect, (1R,2R)-3-(3-Dimethylamino-1-ethyl-2-methyl-propyl)-phenol was applied 15 min and Paracetamol 120 min before timepoint of measurement of the interaction-experiments (i. e. Paracetamol was applied 105 min before (1R,2R)-3-(3-Dimethylamino-1-ethyl-2-methyl-propyl)-phenol, respectively). Thus, the time point of ED50 calculation of the combination corresponds to the timepoint of the peak effect of the respective compound.

Structure (SMILES)	timepoint of peak effect (A alone, i.v., timepoint of first measurement)	timepoint of peak effect (Paracetamol alone, i.p.)	ED50 (confidence interval) (Paracetamol alone, i.p., 120 min p. appl. (peak effect), rat, n = 10, 120 min)	ED50 (Rattus norvegicus, ip, 2 h, Paracetamol alone, i.p., 120 min p. appl. (peak effect), rat, n = 10, read-out: ED50 (confidence interval))
CC[C@@H](c1cccc(O)c1)[C@@H](C)CN(C)C [A, (1R,2R)-3-(3-Dimethylamino-1-ethyl-2-methyl-propyl)-phenol]	15 min p. appl.	–	–	–
CC(=O)Nc1ccc(O)cc1 [Paracetamol]	–	120 min p. appl.	189,9 (181,3-198,4) mg/kg	190 mg/kg

— patent EP2012764B1, “PHARMACEUTICAL COMBINATION COMPRISING 3-(3-DIMETHYLAMINO-1-ETHYL-2-METHYL-PROPYL) -PHENOL AND PARACETAMOL” (Grünenthal GmbH, priority 2006, dated 2007)
